Laboratory results from patent publication US12691101B2, “Compound and method for preventing or treating of respiratory diseases comprising the same as an active ingredient” (YONSEI UNIVERSITY, UNIVERSITY - INDUSTRY FOUNDATION (UIF), priority 2019, dated 2026).

Experiments:
[1] = target: T1, human wild-type (WT)-pendrin (Homo sapiens, UniProt O43511); assay: Pendrin-mediated Cl^−/SCN^− exchange activity in CHO-K1 cells; type: cell-based
T1 construct: expressed in transfected cells
T1 sequence (O43511 1-780): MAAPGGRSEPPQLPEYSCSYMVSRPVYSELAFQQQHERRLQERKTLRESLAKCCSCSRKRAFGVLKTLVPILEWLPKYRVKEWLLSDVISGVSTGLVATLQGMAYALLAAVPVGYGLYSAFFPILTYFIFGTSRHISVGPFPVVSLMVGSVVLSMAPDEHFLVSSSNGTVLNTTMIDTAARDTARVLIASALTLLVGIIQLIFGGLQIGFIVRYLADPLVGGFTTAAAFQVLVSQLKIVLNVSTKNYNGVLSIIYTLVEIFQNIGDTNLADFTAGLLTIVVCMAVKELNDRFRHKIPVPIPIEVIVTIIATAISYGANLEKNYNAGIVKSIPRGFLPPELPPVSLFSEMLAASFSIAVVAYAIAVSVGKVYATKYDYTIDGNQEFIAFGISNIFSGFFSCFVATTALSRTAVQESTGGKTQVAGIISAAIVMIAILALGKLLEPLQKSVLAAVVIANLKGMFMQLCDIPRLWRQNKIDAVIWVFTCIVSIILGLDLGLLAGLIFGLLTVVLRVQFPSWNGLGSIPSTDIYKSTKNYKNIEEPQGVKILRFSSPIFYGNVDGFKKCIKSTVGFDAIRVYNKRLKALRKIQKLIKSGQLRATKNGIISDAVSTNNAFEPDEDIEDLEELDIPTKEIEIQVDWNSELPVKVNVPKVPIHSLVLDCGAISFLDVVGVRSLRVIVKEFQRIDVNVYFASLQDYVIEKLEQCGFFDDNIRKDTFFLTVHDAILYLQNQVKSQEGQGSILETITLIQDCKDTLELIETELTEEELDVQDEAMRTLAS
Procedure: For measurement of Cl^−/SCN^− exchange activity, YFP fluorescence was measured in pendrin and halide sensor YFP expressing CHO-K1 cells. To measure the Cl^−/SCN^− exchange activity, HEPES buffer solution was changed to NaSCN-substituted HEPES buffer solution (140 mM NaSCN, 5 mM KCl, 1 mM MgCl2, 1 mM CaCl2, 10 mM glucose and 10 mM HEPES (pH 7.4)) for generation of an SCN^− gradient driving SCN^− inflow by pendrin. The YFP fluorescence change by SCN^− inflow was monitored using FLUOstar Omega microplate reader (BMG Labtech) and MARS data analysis software (BMG Labtech).

MUC5AC mRNA = assay: Real-time PCR of MUC5AC mRNA in IL-4-treated HNE cells; type: cell-based, human; details: IL-4-treated HNE cells (F10: 120 hours after treatment)
Procedure: (A) The MUC5AC mRNA expression level was determined at the indicated time after treatment of F56 ([…]) in IL-4 (10 ng/ml)-treated HNE cells (mean±S.E., n=4). (B) Periodic acid-Schiff (PAS) staining showing goblet cell hyperplasia of IL-4 and IL-13 (10 ng/ml)-treated HNE cells in presence or absence of F56 ([…]) at Day 7. (C) Measurement of the total volume of ASL and fluid meniscus in HNE cells expressing wild-type (wt) or mutant (mt) PDS. The HNE cells were treated with IL-4 (10 ng/ml, 48 hours) in presence or absence of […]. (D) Representative image of a transwell insert having normal HNE cells. Arrows indicate the fluid meniscus of HNE cells treated with IL-4 (10 ng/ml, 48 hours) in presence or absence of […]. (E) Representative protein expression result of pendrin in IL-4 and IL-13-treated HNE cells. […]
The MUC5AC mRNA expression level was determined in 120 hours after F10 treatment by real-time quantitative PCR in IL-4-treated HNE cells.
The total messenger RNA (mRNA) was extracted using TRIzol reagent (Invitrogen, Carlsbad, CA, USA), and was reverse-transcribed using a random hexamer primer, an oligo(dT) primer and SuperScript® III reverse transcriptase (Invitrogen). Quantitative real-time PCR was performed using StepOnePlus Real-Time PCR system (Applied Biosystems, Foster City, CA, USA) and Thunderbird SYBR qPCR mix (Tokyobo, Osaka, Japan). […]

Structure (SMILES) | inhibition of pendrin Cl^−/SCN^− exchange activity [1] | mRNA expression of IL-4-induced MUC5AC (MUC5AC mRNA)
CC(C)(C)c1ccc(C2=NC(=Cc3cccs3)C(=O)O2)cc1 [F56, 2-(4-(tert-butyl)phenyl)-4-(thiophen-2-ylmethylene)oxazol-5(4H)-one] | strongly inhibited | significantly reduced
CC(C)(C)c1ccc(C2=NC(=Cc3ccc[nH]3)C(=O)O2)cc1 [F10, 4-((1H-pyrrol-2-yl)methylene)-2-(4-(tert-butyl)phenyl)oxazol-5 (4H)-one] | strongly inhibit | reduced the mRNA expression of MUC5AC in a concentration-dependent manner
